# Assay results from patent US20240287154A1, “MC3R AGONIST PEPTIDES” (The Regents of the University of Michigan, priority 2021, published 2024).
# Non-standard residues stand in square brackets, D forms with d. Residues, ends and D or L forms follow the SMILES beside them. Phe(4-Br) = N[C@@H](Cc1ccc(Br)cc1)C(=O)O; Phe(4-F) = N[C@@H](Cc1ccc(F)cc1)C(=O)O; Phe(4-I) = N[C@@H](Cc1ccc(I)cc1)C(=O)O; NMeY = CN[C@@H](Cc1ccc(O)cc1)C(=O)O; Nle = CCCC[C@H](N)C(=O)O
# Experiments:
# [1] = biological target: human MC4R (Homo sapiens, UniProt P32245); test: Intracellular cAMP levels in live cells, MC3R selectivity relative to MC4R; format: cell-based; conditions: cAMP assays in human MC3R and human MC4R stable cell lines
# [2] = biological target: T1, human MC3R (Homo sapiens, UniProt P41968); test: Intracellular cAMP levels in live cells, MC3R agonist activity; format: cell-based; conditions: cAMP split-luciferase reporter cell line stably expressing human MC3R; direct agonist effect, measurement window 1
# T1 construct: expressed in transfected cells
# Procedure: The stable cell lines were grown and maintained in selection media consisting of Dulbecco's modified Eagle media (DMEM) with 4.5 g/l D-glucose, and 4 mM L-glutamine (Thermo Fisher Scientific, Waltham, MA), supplemented with 10% fetal bovine serum, 100 units/ml penicillin, 100 μg/ml streptomycin, 2.5 μg/ml amphotericin B, 200 μg/ml hygromycin B (for positive selection of the GScAMP22f luciferase reporter), and Geneticin™ (G418) 700 μg/ml (for MC3R or MC4R selection). Actual serum concentration during the assay is estimated to be about 1%. Cell line identity is routinely verified by qPCR and MC3R- and MC4R-specific oligonucleotides.
# The assay for the determination of the CAMP response in live cells was described previously. […] Ccells were seeded at a density of 20,000 cells per well using 384-well poly-D lysine-coated, clear bottom, and black-wall assay plates (Corning Inc. Corning, NJ). Cells were allowed to attach to the plates for 18 to 24 h after which growth media was removed and 20 ul of 4% D-luciferin (Promega) in CO2 independent, serum-free medium (Thermo Fisher Scientific) was added to each well. […] Intracellular cAMP levels were measured using an FDSS 7000EX Functional Drug Screening System (Hamamatsu Photonics, Hamamatsu, Japan) in the Center for Chemical Genomics at the Life Sciences Institute. This instrument allowed the in-line addition of test-peptides and receptor agonists while simultaneously acquiring the luminescence signal from live cells. […] A submaximal forskolin (20 μM) concentration was also included to serve as a normalization reference to account for cell number variations and differences in assay transducer efficiency between cell lines.
# With this set up it was possible to evaluate the direct agonist effect of the test-peptides on the MC3R and MC4R cell lines during measurement window 1, while the antagonist profile in the presence of EC90 α-MSH was determined on measurement window 2. […] EC50 or IC50 potency values were determined by non-linear regression by fitting the data to a sigmoid four-parameter variable slope model using the GraphPad Prism version 8.4 software package (San Diego CA).
# [3] = in vitro
# Procedure: Pooled mouse plasma was prepared and stored at −80° C. prior to use. 396 μL mouse plasma was incubated at 37° C. for 5 minutes in 1.5 mL microcentrifuge tubes. 4 μL of 100 μM test or control compound/peptide was added to each tube and incubated for 0.5, 15, 30, 60, 120, or 240 minutes. An aliquot of 40 μL of each reaction was stopped by the addition of 4 volume of cold acetonitrile containing 200 ng/mL of Setmelanotide as an internal standard (IS). The incubation solution was centrifuged at 3500 rpm for 10 minutes to precipitate protein. The supernatant was used for LC/MS/MS analysis. The natural log peak area ratio (compound peak […] area/internal standard peak area) was plotted against time and the gradient of the line determined.
# Sequence of human MC4R (P32245 whole entry): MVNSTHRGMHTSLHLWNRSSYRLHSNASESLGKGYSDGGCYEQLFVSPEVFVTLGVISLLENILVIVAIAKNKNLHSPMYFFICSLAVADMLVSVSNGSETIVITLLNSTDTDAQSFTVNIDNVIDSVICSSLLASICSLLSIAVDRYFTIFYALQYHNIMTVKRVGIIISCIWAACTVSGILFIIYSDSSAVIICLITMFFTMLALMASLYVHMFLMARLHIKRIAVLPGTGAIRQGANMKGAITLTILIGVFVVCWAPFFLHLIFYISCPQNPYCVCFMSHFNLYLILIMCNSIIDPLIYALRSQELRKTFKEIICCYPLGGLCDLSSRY
# T1 sequence (P41968 whole entry): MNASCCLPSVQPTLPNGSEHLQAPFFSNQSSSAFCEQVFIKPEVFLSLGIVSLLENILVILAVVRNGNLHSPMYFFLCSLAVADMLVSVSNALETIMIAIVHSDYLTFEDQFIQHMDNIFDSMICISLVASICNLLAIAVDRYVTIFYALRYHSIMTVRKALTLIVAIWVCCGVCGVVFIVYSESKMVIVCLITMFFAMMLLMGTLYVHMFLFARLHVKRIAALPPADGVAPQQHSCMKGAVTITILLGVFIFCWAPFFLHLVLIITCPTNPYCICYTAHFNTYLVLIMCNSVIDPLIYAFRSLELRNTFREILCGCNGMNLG
SMILES,MC3R selectivity (relative to MC4R) [1],"half-life at 1 µM ([3]; mouse, plasma) [min]","remaining at 5 min, 1 µM ([3]; mouse, plasma) [%]","remaining at 0.25 h, 1 µM ([3]; mouse, plasma) [%]","remaining at 0.5 h, 1 µM ([3]; mouse, plasma) [%]","remaining at 1 h, 1 µM ([3]; mouse, plasma) [%]","Mouse Plasma Stability, time point 0 min ([3]; pooled mouse plasma, 37° C.) [%]",also measured
"CCCC[C@H](NC(C)=O)C(=O)N[C@H](C)C(=O)N[C@@H](Cc1c[nH]cn1)C(=O)N[C@@H](Cc1ccc(F)cc1)C(=O)N[C@@H](CCCNC(=N)N)C(=O)N[C@H](Cc1c[nH]c2ccccc12)C(=O)N[C@@H](CC(=O)O)C(=O)N[C@@H](CCCNC(=N)N)C(=O)N[C@@H](Cc1ccccc1)C(=O)NCC(=O)O [CTX-1518, Nle-D-Ala-His-Phe(4-F)-Arg-D-Trp-Asp-Arg-Phe-Gly] (Ac-[Nle][dA]H[Phe(4-F)]R[dW]DRFG-OH)","1,559",–,–,–,–,–,–,EC50 [2]: 1.9 nM
"CCCC[C@H](NC(=O)[C@@H](NC(=O)[C@@H](N)Cc1ccc(O)cc1)C(C)C)C(=O)N[C@H](C)C(=O)N[C@@H](Cc1c[nH]cn1)C(=O)N[C@@H](Cc1ccccc1)C(=O)N[C@@H](CCCNC(=N)N)C(=O)N[C@H](Cc1c[nH]c2ccccc12)C(=O)N[C@@H](CC(=O)O)C(=O)N[C@@H](CCCNC(=N)N)C(=O)N[C@@H](Cc1ccccc1)C(=O)NCC(=O)O [CTX-1103, Tyr-Val-Nle-D-Ala-His-Phe-Arg-D-Trp-Asp-Arg-Phe-Gly] (H-YV[Nle][dA]HFR[dW]DRFG-OH)",229,1.46,9.3,0.21,0.03,0.02,100,–
"CCCC[C@H](NC(=O)[C@@H](NC(=O)[C@@H](N)Cc1ccc(O)cc1)C(C)C)C(=O)N[C@H](C)C(=O)N[C@@H](Cc1c[nH]cn1)C(=O)N[C@@H](Cc1ccc(Br)cc1)C(=O)N[C@@H](CCCNC(=N)N)C(=O)N[C@H](Cc1c[nH]c2ccccc12)C(=O)N[C@@H](CC(=O)O)C(=O)N[C@@H](CCCNC(=N)N)C(=O)N[C@@H](Cc1ccccc1)C(=O)NCC(=O)O [CTX-2120, Tyr-Val-Nle-D-Ala-His-Phe(4-Br)-Arg-D-Trp-Asp-Arg-Phe-Gly] (H-YV[Nle][dA]H[Phe(4-Br)]R[dW]DRFG-OH)",173,2.01,17.9,0.78,0.13,0.09,100,–
"CCN(CC)CCOC(=O)c1ccc(N)cc1 [Procaine, reference compound]",–,–,–,–,–,–,100,"half-life at 1 µM ([3]; mouse, pooled mouse plasma): 3.81 min; Mouse Plasma Stability, time point 5 min ([3]; pooled mouse plasma, 37° C.): 40.3%; Mouse Plasma Stability, time point 15 min ([3]; pooled mouse plasma, 37° C., in % (unit assumed)): 8.80; Mouse Plasma Stability, time point 30 min ([3]; pooled mouse plasma, 37° C.): 2.15%; Mouse Plasma Stability, time point 60 min ([3]; pooled mouse plasma, 37° C.): 0.44%"
"CCCC[C@H](NC(C)=O)C(=O)N[C@H](C)C(=O)N[C@@H](Cc1c[nH]cn1)C(=O)N[C@@H](Cc1ccccc1)C(=O)N[C@@H](CCCNC(=N)N)C(=O)N[C@H](Cc1c[nH]c2ccccc12)C(=O)N[C@@H](CC(=O)O)C(=O)N[C@H](CCCNC(=N)N)C(=O)N[C@@H](Cc1ccccc1)C(=O)NCC(=O)O [CTX-1146, Nle-D-Ala-His-Phe-Arg-D-Trp-Asp-D-Arg-Phe-Gly] (Ac-[Nle][dA]HFR[dW]D[dR]FG-OH)",–,–,–,–,–,–,–,EC50 [2]: 170 nM
"CCCC[C@H](NC(=O)[C@@H](NC(=O)[C@H](Cc1ccc(O)cc1)NC)C(C)C)C(=O)N[C@H](C)C(=O)N[C@@H](Cc1c[nH]cn1)C(=O)N[C@@H](Cc1ccccc1)C(=O)N[C@@H](CCCNC(=N)N)C(=O)N[C@H](Cc1c[nH]c2ccccc12)C(=O)N[C@@H](CC(=O)O)C(N)=O [CTX-1141, NMe-Tyr-Val-Nle-D-Ala-His-Phe-Arg-D-Trp-Asp] (H-[NMeY]V[Nle][dA]HFR[dW]D-NH2)",55,> 240,106,118,95,91.8,100,"remaining at 2 h, 1 µM ([3]; mouse, plasma): 108%; remaining at 4 h, 1 µM ([3]; mouse, plasma): 63.9%"
"CCN(CC)CCNC(=O)c1ccc(N)cc1 [Procainamide, reference compound]",–,–,–,–,–,–,–,"Mouse Plasma Stability, time point 0 min ([3]; mouse, 1 µM): 100.00; Mouse Plasma Stability, time point 5 min ([3]; mouse, 1 µM): 101.53; Mouse Plasma Stability, time point 15 min ([3]; mouse, 1 µM): 109.16; Mouse Plasma Stability, time point 30 min ([3]; mouse, 1 µM): 103.05; Mouse Plasma Stability, time point 60 min ([3]; mouse, 1 µM): 104.43; Mouse Plasma Stability, time point 120 min ([3]; mouse, 120 min, 1 µM): 110.61; Mouse Plasma Stability, time point 240 min ([3]; mouse, 240 min, 1 µM): 108.17"
"CC(C)[C@H](NC(=O)[C@@H](N)Cc1ccc(O)cc1)C(=O)N[C@@H](CCC(=O)O)C(=O)NCC(=O)N[C@@H](Cc1c[nH]cn1)C(=O)N[C@@H](Cc1ccccc1)C(=O)N[C@@H](CCCNC(=N)N)C(=O)N[C@H](Cc1c[nH]c2ccccc12)C(=O)N[C@@H](CC(=O)O)C(=O)N[C@@H](CCCNC(=N)N)C(=O)N[C@@H](Cc1ccccc1)C(=O)NCC(N)=O [CTX-1105, Tyr-Val-Glu-Gly-His-Phe-Arg-D-Trp-Asp-Arg-Phe-Gly] (H-YVEGHFR[dW]DRFG-NH2)",500,2.38,23.4,1.51,0.3,0.27,100,"remaining at 2 h, 1 µM ([3]; mouse, plasma): 0.12%"
"CCCC[C@H](NC(=O)[C@@H](NC(=O)[C@@H](N)Cc1ccc(O)cc1)C(C)C)C(=O)N[C@H](C)C(=O)N[C@@H](Cc1c[nH]cn1)C(=O)N[C@@H](Cc1ccccc1)C(=O)N[C@@H](CCCNC(=N)N)C(=O)N[C@H](Cc1c[nH]c2ccccc12)C(=O)N[C@@H](CC(=O)O)C(N)=O [CTX-1108, Tyr-Val-Nle-D-Ala-His-Phe-Arg-D-Trp-Asp] (H-YV[Nle][dA]HFR[dW]D-NH2)",79,1.32,7.21,0.33,0.04,0.01,100,–
"CCCC[C@H](NC(C)=O)C(=O)N[C@H](C)C(=O)N[C@@H](Cc1c[nH]cn1)C(=O)N[C@@H](Cc1ccccc1)C(=O)N[C@@H](CCCNC(=N)N)C(=O)N[C@H](Cc1c[nH]c2ccccc12)C(=O)N[C@@H](CC(=O)O)C(=O)N[C@@H](CCCNC(=N)N)C(=O)N[C@H](Cc1ccccc1)C(=O)NCC(=O)O [CTX-1145, Nle-D-Ala-His-Phe-Arg-D-Trp-Asp-Arg-D-Phe-Gly] (Ac-[Nle][dA]HFR[dW]DR[dF]G-OH)",535,–,–,–,–,–,–,–
"CCCC[C@H](NC(C)=O)C(=O)NCC(=O)N[C@@H](Cc1c[nH]cn1)C(=O)N[C@@H](Cc1ccccc1)C(=O)N[C@@H](CCCNC(=N)N)C(=O)N[C@H](Cc1c[nH]c2ccccc12)C(=O)N[C@@H](CC(=O)O)C(=O)N[C@@H](CCCNC(=N)N)C(=O)N[C@@H](Cc1ccccc1)C(=O)NCC(=O)O [CTX-1185, Nle-Gly-His-Phe-Arg-D-Trp-Asp-Arg-Phe-Gly] (Ac-[Nle]GHFR[dW]DRFG-OH)","2,312",–,–,–,–,–,–,–
"CCCC[C@H](NC(=O)[C@@H](NC(=O)[C@@H](N)Cc1ccc(O)cc1)C(C)C)C(=O)N[C@H](C)C(=O)N[C@@H](Cc1c[nH]cn1)C(=O)N[C@@H](Cc1ccc(I)cc1)C(=O)N[C@@H](CCCNC(=N)N)C(=O)N[C@H](Cc1c[nH]c2ccccc12)C(=O)N[C@@H](CC(=O)O)C(=O)N[C@@H](CCCNC(=N)N)C(=O)N[C@@H](Cc1ccccc1)C(=O)NCC(=O)O [CTX-2122, Tyr-Val-Nle-D-Ala-His-Phe(4-I)-Arg-D-Trp-Asp-Arg-Phe-Gly] (H-YV[Nle][dA]H[Phe(4-I)]R[dW]DRFG-OH)",324,–,–,–,–,–,–,–
"CCCC[C@H](NC(=O)[C@@H](NC(=O)[C@H](N)Cc1ccc(O)cc1)C(C)C)C(=O)N[C@H](C)C(=O)N[C@@H](Cc1c[nH]cn1)C(=O)N[C@@H](Cc1ccc(I)cc1)C(=O)N[C@@H](CCCNC(=N)N)C(=O)N[C@H](Cc1c[nH]c2ccccc12)C(=O)N[C@@H](CC(=O)O)C(N)=O [CTX-1171, D-Tyr-Val-Nle-D-Ala-His-Phe(4-I)-Arg-D-Trp-Asp] (H-[dY]V[Nle][dA]H[Phe(4-I)]R[dW]D-NH2)",234,–,–,–,–,–,–,–
